Assay results reported in patent US11458138B2 (Novartis AG, priority 2017, dated 2022).

Experiments:
[1] = system: Phospho-YAP (Ser127) in JHH-5 cells; assay: pYAP HTRF Assay (JHH-5 cells); type: cell-based; conditions: 2 hours
Summary of the method: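 JHH-5 cells (24000/well) cultured 24 h at 37 °C in William's E with 10% FBS, then exposed to compounds for 2 h at 37 °C. After lysis, pYAP d2/cryptate antibodies incubated 18 h at room temperature; HTRF ratio 665/620 nm ×10000.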

[2] = target: Human LATS2 kinase domain protein (Homo sapiens (Human), UniProt Q9NRM7); assay: LATS2 Biochemical Caliper Assay (Compound Examples 1-290); conditions: 400 micromolar ATP
Chain of Human LATS2 kinase domain protein (Q9NRM7 553-1088): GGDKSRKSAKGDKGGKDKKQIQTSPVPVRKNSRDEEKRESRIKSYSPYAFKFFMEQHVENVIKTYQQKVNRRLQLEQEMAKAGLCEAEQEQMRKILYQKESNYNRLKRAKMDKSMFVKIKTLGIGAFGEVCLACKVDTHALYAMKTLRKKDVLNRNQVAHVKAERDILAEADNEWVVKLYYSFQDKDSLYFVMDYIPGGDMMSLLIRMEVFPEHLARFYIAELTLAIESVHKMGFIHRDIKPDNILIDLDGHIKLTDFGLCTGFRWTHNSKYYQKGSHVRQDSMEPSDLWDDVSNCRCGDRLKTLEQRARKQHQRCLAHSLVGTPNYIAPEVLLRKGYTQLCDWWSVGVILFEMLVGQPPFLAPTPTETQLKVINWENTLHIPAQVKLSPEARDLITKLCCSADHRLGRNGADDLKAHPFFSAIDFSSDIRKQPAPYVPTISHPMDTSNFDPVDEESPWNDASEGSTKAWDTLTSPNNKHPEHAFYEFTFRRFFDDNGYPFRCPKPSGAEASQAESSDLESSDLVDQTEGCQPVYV
Chain of Human LATS2 kinase domain protein (Q7L9L4 whole entry partner, the tested form may be a part): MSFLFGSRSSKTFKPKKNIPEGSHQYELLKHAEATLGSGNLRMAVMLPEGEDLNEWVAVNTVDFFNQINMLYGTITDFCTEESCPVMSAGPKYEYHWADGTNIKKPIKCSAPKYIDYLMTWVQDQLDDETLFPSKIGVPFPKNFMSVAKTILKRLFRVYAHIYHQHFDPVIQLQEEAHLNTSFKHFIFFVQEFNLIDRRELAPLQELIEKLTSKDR
Summary of the method: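 LATS2 catalytic domain (aa 553-1088), co-purified with His-tagged MOBKL1A, reacted with compound for 3 h at 25° C before EDTA (25 mM) stop. Substrate and product separated by microfluidic electrophoresis (Caliper LabChip 3000) and quantified by fluorescence intensity.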

[3] = system: human corneal endothelial cells (CECs); assay: Human corneal endothelial cell population expansion: fold cell expansion; type: cell-based; conditions: 10 micromolar compound, X-VIVO15 medium, 10 days, ratio of expanded to seeded cells
Protocol: (§1) Cells were cultured at 37° C. in 5% CO2.
(§2) For each compound, two sets of cultures were generated. A first set of cultures was fixed in 4% PFA for 20 minutes at room temperature after cells isolated from the cornea had attached to the cell culture dish (typically 24 h after cell plating). A second set of cultures was fixed in 4% PFA for 20 minutes at room temperature 10 days after the first one.
To measure cell density in all fixed cultures, the number of nuclei stained with Sytox Orange (ThermoFisher) were counted per surface area as follows: fixed cell cultures fixed were permeabilized in a solution of 0.3% Triton X-100 (Sigma-Aldrich). Cells were then labeled in a solution of 0.5 micromolar of Sytox Orange in PBS for 5 minutes at room temperature. Nuclei were counted under a Zeiss epifluorescence microscope. The expansion factor was then determined by calculating the ratio of the expanded population of cells to population of seeded cells.

[4] = system: human limbal stem cells (LSCs); assay: Human limbal stem cell population expansion: percentage of p63alpha-positive cells; type: cell-based; conditions: 10 micromolar, XVIVO15 medium
Protocol: as §1
as §2, with “temperature” for “temperature 10 days”, “being cultured for two passages. Cells were passaged when they reached 90-100% confluence.” for “the first one.”
In order to observe that the expanded cell population expressed p63alpha, this was measured by immunohistochemistry as follows. The fixed cell cultures were permeabilized and blocked in a blocking solution of 0.3% Triton X-100 (Sigma-Aldrich) and 3% donkey serum in PBS for 30 minutes. Cells were then labeled with primary antibody in the blocking solution for 12 hours at 4° C. Primary antibody used was p63alpha from Cell Signalling. Samples were washed in PBS three times and donkey-raised secondary antibody Alexa Fluor 488 (Molecular Probes) at 1:500 dilution were applied for 30 minutes at room temperature. Cell nuclei were then labeled in a solution of 0.5 micromolar of Sytox Orange (ThermoFisher) in PBS for 5 minutes at room temperature.
To evaluate the percentage of p63alpha-positive cells, the number of cells labeled by the anti-p63alpha antibody was counted and the total number of cells was determined by counting the number of nuclei stained by Sytox Orange. The proportion of p63alpha-positive cells was then determined by calculating the percentage of Sytox-orange-positive nuclei that also expressed p63alpha.

[5] = target: Human LATS1 kinase domain protein (Homo sapiens (Human), UniProt O95835); assay: LATS1 Biochemical Caliper Assay; conditions: 400 micromolar ATP
Chain of Human LATS1 kinase domain protein (O95835 whole entry, looked up, the tested form may be a part): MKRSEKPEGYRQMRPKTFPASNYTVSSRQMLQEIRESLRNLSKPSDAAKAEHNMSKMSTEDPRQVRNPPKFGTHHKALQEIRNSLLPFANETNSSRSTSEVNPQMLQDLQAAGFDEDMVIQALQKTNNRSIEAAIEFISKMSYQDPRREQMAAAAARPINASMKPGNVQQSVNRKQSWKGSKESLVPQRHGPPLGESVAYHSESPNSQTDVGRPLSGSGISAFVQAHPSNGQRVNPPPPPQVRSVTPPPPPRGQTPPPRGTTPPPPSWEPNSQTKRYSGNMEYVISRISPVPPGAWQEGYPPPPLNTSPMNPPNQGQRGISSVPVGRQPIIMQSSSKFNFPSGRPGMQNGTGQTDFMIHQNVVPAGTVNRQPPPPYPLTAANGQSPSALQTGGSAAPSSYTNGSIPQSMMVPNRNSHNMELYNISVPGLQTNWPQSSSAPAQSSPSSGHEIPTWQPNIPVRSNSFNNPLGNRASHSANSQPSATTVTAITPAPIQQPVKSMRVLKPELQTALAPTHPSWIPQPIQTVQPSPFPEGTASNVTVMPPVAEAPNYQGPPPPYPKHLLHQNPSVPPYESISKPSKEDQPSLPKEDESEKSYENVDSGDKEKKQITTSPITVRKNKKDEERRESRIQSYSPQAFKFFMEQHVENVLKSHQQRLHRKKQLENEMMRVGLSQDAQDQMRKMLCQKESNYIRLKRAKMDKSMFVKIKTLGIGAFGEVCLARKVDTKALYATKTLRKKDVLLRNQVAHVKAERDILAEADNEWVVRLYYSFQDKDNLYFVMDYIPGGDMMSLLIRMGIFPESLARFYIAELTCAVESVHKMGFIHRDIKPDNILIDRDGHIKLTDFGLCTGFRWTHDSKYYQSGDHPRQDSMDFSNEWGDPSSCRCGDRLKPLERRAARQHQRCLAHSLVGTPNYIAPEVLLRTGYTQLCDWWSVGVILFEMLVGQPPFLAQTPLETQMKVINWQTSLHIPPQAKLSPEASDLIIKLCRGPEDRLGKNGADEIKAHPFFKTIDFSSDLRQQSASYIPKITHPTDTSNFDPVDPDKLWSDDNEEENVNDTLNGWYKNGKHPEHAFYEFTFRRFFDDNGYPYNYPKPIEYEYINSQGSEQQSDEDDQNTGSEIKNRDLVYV
Chain of Human LATS1 kinase domain protein (Q7L9L4 whole entry partner, looked up, the tested form may be a part): as the sequence (Q7L9L4 whole entry partner, the tested form may be a part) above
Protocol: Human LATS1 kinase domain protein was purchased from Carnabio (catalogue number 01-123), which harbors the catalytic domain of amino acids 589-1130, and was co-purified with human His-tagged MOBKL1A (NP_775-739). 5 microlitre of enzyme buffer, 100 nL of compounds and 5 microlitre of localising aid buffer were added into 384-well plates. The final assay reaction mix contains 100 mM HEPES, pH7.5, 0.1% BSA, 0.01% Triton X-100, 1 mM DTT, 10 mM MgCl2, 10 micromolar Sodium Orthovanadate, 10 micromolar Beta-Glycerophosphate, 400 micromolar ATP, 1% DMSO, 1.1 nM LATS1 enzyme (Carnabio, 01-123), 1 micromolar localising aid of FAM-[…]-COOH (SEQ ID NO: 24) (NanoSyn). The plates were incubated at 25° C. for 3 hours. 40 microlitre of stop buffer with 25 mM EDTA (NanoSyn) was added to each well to terminate the reaction. Localising aids and products were separated electrophoretically using the microfluidic-based Caliper Labchip 3000 Drug Discovery System (Caliper Life Sciences). Plates were read using blue laser excitation and green fluorescence detection and quantified by fluorescence intensity. […] According to this assay the LATS1 IC50 values in micromolar for the following compounds are: […]

Structure (SMILES) | IC50 [1] | IC50 [2] | Expansion factor (Fold Cell expansion) [3] | Percentage of p63a-positive cells [4] | IC50 [5]
CCCNc1nc(-c2ccncc2)nc2cnccc12 [Example 14, N-propyl-2-(pyridin-4-yl)pyrido[3,4-d]pyrimidin-4-amine] | > 10000 nM | 50 nM | 337 | 93% | 34 nM
c1cc(-c2nc(NC3CCCC3)c3ccncc3n2)ccn1 [Example 65, N-cyclopentyl-2-(pyridin-4-yl)pyrido[3,4-d]pyrimidin-4-amine] | 5800 nM | 30 nM | 203 | 87% | 22 nM
CC(C)(O)CC(C)(C)Nc1nc(-c2ccncc2)nc2cnccc12 [Example 49, 2,4-dimethyl-4-{[2-(pyridin-4-yl)pyrido[3,4-d]pyrimidin-4-yl]amino}pentan-2-ol] | 1600 nM | 21 nM | 426 | 92% | 12 nM
Cc1n[nH]cc1-c1nc(NC2(C)CC2)c2ccncc2n1 [Example 133, 2-(3-methyl-1H-pyrazol-4-yl)-N-(1-methylcyclopropyl)pyrido[3,4-d]pyrimidin-4-amine] | 1700 nM | 4 nM | 273 | 89% | 4 nM
CC(C)(C)Nc1cc(-c2ccncc2)nc2cnccc12 [Example 261, N-(tert-butyl)-2-(pyridin-4-yl)-1,7-naphthyridin-4-amine] | 600 nM | 4 nM | 461 | 93% | –
